The target in the assay is T1, human ACC2 (Homo sapiens, UniProt O00763).
T1 construct: made in house; host or cells: insect cells, baculoviral expression system
T1 sequence (O00763 129-2458 limits assumed): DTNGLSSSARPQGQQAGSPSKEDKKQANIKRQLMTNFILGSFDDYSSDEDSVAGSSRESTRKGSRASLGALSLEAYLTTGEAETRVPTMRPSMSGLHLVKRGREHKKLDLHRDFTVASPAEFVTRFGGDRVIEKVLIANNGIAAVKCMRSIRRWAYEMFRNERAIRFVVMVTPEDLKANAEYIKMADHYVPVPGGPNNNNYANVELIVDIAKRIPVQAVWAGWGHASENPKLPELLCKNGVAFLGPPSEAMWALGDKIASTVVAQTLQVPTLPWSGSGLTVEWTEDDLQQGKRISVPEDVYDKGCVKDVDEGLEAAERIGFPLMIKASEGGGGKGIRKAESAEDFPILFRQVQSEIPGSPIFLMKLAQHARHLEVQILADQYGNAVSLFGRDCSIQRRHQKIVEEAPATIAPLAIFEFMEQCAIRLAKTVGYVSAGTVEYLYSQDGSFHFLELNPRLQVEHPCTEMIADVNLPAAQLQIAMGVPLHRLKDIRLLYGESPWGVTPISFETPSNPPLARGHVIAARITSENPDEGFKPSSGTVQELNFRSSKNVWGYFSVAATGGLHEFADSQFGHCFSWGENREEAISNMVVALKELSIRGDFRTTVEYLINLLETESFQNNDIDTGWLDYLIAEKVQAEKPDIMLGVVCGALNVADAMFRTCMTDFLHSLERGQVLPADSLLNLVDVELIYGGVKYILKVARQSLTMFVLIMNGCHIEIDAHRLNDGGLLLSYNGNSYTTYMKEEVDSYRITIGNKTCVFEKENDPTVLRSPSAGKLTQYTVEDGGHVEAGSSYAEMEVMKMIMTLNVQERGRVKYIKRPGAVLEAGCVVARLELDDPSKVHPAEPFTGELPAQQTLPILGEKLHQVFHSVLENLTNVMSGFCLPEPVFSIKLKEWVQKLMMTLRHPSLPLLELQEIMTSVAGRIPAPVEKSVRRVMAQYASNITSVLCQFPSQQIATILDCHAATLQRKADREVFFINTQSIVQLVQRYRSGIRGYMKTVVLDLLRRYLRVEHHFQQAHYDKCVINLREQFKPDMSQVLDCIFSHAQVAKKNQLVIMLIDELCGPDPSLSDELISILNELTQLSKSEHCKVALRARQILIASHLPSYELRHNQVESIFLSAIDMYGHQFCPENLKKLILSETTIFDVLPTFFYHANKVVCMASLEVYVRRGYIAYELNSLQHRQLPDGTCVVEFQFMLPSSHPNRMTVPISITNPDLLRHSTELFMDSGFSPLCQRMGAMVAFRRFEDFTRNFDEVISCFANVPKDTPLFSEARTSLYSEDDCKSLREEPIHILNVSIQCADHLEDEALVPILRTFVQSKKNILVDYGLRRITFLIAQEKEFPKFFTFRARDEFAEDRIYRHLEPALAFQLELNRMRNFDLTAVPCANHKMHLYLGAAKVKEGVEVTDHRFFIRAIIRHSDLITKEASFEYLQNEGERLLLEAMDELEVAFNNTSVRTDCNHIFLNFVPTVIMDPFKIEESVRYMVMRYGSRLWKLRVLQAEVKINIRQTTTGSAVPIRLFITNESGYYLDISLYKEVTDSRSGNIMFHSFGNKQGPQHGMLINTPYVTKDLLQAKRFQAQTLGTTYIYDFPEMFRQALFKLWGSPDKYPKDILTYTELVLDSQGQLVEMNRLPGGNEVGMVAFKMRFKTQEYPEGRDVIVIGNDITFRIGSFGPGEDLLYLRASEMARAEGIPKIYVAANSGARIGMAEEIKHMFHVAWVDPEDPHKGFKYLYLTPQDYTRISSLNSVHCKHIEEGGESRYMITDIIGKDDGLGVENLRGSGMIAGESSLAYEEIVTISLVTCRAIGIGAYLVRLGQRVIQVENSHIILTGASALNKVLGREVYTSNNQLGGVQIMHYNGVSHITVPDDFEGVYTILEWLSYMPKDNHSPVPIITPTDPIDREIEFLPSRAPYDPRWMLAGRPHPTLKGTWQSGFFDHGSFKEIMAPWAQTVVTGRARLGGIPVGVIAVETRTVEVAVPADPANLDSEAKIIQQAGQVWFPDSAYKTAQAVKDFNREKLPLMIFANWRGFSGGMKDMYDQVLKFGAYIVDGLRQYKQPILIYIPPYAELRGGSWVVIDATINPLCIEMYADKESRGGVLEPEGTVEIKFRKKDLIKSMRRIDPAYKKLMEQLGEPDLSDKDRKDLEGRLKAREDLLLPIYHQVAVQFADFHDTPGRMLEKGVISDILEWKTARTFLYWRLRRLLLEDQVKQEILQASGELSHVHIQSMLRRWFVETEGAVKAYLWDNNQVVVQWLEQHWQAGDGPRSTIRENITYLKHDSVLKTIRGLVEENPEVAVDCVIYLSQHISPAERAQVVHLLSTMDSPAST
As to the kind of experiment: ACC2 assay, spectrophotometric 384 well assay (NADH-linked, coupled lactate dehydrogenase/pyruvate kinase). It counts as biochemical. As to conditions: hACC2 construct lacking the 128 N-terminal amino acids; 25° C., 340 nm, 15 minutes. The procedure: Spectrophotometric 384 Well Assay
Malonyl CoA formation by acetyl CoA carboxylases is stoichometrically linked to the consumption of ATP. ACC2 activity is measured in a NADH-linked kinetic method measuring ADP generated during the ACC reaction using a coupled lactate dehydrogenase/pyruvate kinase reaction.
For biological testing, a human ACC2 construct which lacks the 128 amino acids at the N-terminus for increased solubility (nt 385-6966 in Genbank entry AJ575592) is cloned. The protein is then expressed in insect cells using a baculoviral expression system. Protein purification is performed by anion exchange.
All compounds are dissolved in dimethyl sulfoxide (DMSO) to a concentration of 10 mM.
Assay reactions are then carried out in 384-well plates, with hACC2 in an appropriate dilution and at final assay concentrations (f.c.) of 100 mM Tris (pH 7.5), 10 mM trisodium citrate, 25 mM KHCO3, 10 mM MgCl2, 0.5 mg/mL BSA, 3.75 mM reduced L-glutathione, 15 U/mL lactate dehydrogenase, 0.5 mM phosphoenolpyruvate, 15 U/mL pyruvate kinase, compounds at different concentrations at final DMSO concentrations of 1%.
The enzymatic reaction is then started by addition of a mixture of NADH, acetyl Coenzyme A (both 200 μM f.c.) and ATP (500 uM f.c.). The decrease of the optical density (slope S) is then determined at 25° C. at a wavelength of 340 nm over 15 minutes in a spectrophotometric reader.
Each assay microtiter plate contains wells with vehicle instead of compound as controls for the non-inhibited enzyme (100% CTL; ‘HIGH’) and wells without acetyl-CoA as controls for non-specific NADH degradation (0% CTL; ‘LOW’). The slope S is used for calculation of % CTL=(S(compound)−S(‘LOW’))/(S(‘HIGH’)—S(‘LOW’))*100. Compounds will give values between 100% CTL (no inhibition) and 0% CTL (complete inhibition).
For IC50 value determination, the sample slope in the presence of the test compound after subtraction of the low controls (S(compound)−S(‘LOW’)) are used.
An IC50 value is derived from the compound slopes at different dosages after subtraction of the low controls (S(compound)−S(‘LOW’)) by non-linear regression curve fitting (equation y=(A+((B−A)/(1+((C/x)^D))))).
The compound `CCNC(=O)C(C)c1ccc(C#Cc2cnc(OC3CCC3)nc2)cc1` (stereo not shown) [Example 3.2] showed an IC50 of 400 nM.
As for `CCNC(=O)C(C)c1ccc(C#Cc2ccc(OC(CC)COC)cc2)cc1` (stereo not shown) [Example 5.16], the figure is 1400 nM; as for `CCNC(=O)C(C)c1ccc(C#Cc2ccc(OCC)cc2)cc1` (stereo not shown) [Example 1.5], 90 nM; as for `CCNC(=O)C(C)c1ccc(C#Cc2ccc(OC)nc2)cc1` (stereo not shown) [Example 7.28], 2900 nM.
As for `CCOc1ccc(C#Cc2ccc(C(C)C(=O)Nc3ccccc3)cc2)cc1` (stereo not shown) [Example 1.15], the figure is 80 nM.
Turning to `CCNC(=O)C(C)c1ccc(C#Cc2ccc3c(c2)OCC3)cc1` (stereo not shown) [Example 7.20], it took 500 nM to reach half-maximal inhibition (IC50).
Under `CCCOc1ccc(C#Cc2ccc(C(C)(C)C(=O)NCC)cc2)cc1` [Example 1.8] stands 2400 nM; under `CCNC(=O)C(C)c1ccc(C#Cc2ccc(OC3CCCOC3)cc2)cc1` (stereo not shown) [Example 5.11], 870 nM.
Turning to `CCCOc1ccc(C#Cc2ccc(C(C)(C)C(=O)NC3CC3)cc2)cc1` [Example 1.14], 600 nM corresponded to half-maximal inhibition (IC50).
The compound `CCNC(=O)C(C)c1ccc(C#Cc2cnc(NC3CC3)nc2)cc1` (stereo not shown) [Example 2.4] had a concentration for half-maximal inhibition (IC50) of 390 nM. This IC50 lies about 1.5-fold lower than the previous one.
`CCNC(=O)C(C)c1ccc(C#Cc2ccc(OCCOCC)cc2)cc1` (stereo not shown) [Example 5.4] returned a concentration for half-maximal inhibition (IC50) of 1100 nM.
Under `CCCOc1ccc(C#Cc2ccc(C(C)(C)C(N)=O)cc2)cc1` [Example 1.19] stands 29200 nM.
Under `CCOc1ccc(C#Cc2ccc(C(C)C(=O)Nc3cc(C)nn3C)cc2)cc1` (stereo not shown) [Example 6.1, N-(2,5-Dimethyl-2H-pyrazol-3-yl)-2-[4-(4-ethoxy-phenylethynyl)-phenyl]-propionamide] stands 230 nM.
As for `CCNC(=O)C(C)c1ccc(C#Cc2ccc(OC3CCOCC3)cc2)cc1` (stereo not shown) [Example 5.2], the figure is 1800 nM.
As to `CCNC(=O)C(C)c1ccc(C#Cc2ccc(C(=O)Cn3cnc(C)c3)cc2)cc1` (stereo not shown) [Example 7.21], it took 22500 nM to reach half-maximal inhibition (IC50).
Under `CCOc1ccc(C#Cc2ccc(C(C)C(=O)NC(C)C)cc2)cc1` (stereo not shown) [Example 1.20] stands 13200 nM; under `CCNC(=O)C(C)c1ccc(C#Cc2ccc(OC(F)F)cc2)cc1` (stereo not shown) [Example 7.6], 4300 nM.
Under `CCNC(=O)C(C)c1ccc(C#Cc2ccc(OCC3(C)COC3)cc2)cc1` (stereo not shown) [Example 5.15] stands 2700 nM; under `CCNC(=O)C(C)c1ccc(C#Cc2ccc(OC3CCCC3)nc2)cc1` (stereo not shown) [Example 7.30], 220 nM.
As for `CCOc1ccc(C#Cc2ccc(C(C)C(=O)Nc3ncccn3)cc2)cc1` (stereo not shown) [Example 6.15], the figure is 290 nM; as for `CCOc1ccc(C#Cc2ccc(C(C)C(=O)NCC(N)=O)cc2)cc1` (stereo not shown) [Example 1.10], 530 nM; as for `CCNC(=O)C(C)c1ccc(C#Cc2ccc(OC(C)c3ccncc3)cc2)cc1` (stereo not shown) [Example 5.8], 1500 nM.
In the case of `CCOc1ccc(C#Cc2ccc(CC(C)C(=O)NC3CC3)cc2)cc1` (stereo not shown) [Example 1.25], half-maximal inhibition (IC50) required 730 nM.
As for `CCOc1ccc(C#Cc2ccc(C(C)C(=O)NC3COC3)cc2)cc1` (stereo not shown) [Example 6.8], the figure is 620 nM; as for `CCCOc1ccc(C#Cc2ccc(C(C)C(=O)NCC)cc2)cn1` (stereo not shown) [Example 7.47], 490 nM.
Consider `CCNC(=O)C(C)c1ccc(C#Cc2cnc(Oc3ccccc3)nc2)cc1` (stereo not shown) [Example 3.3], for which half-maximal inhibition (IC50) was put at 920 nM.
Compound `CCCOc1ccc(C#Cc2ccc(C(C)C(=O)NCC)cc2)cc1` (stereo not shown) [Example 7.25] yielded an IC50 of 70 nM. This IC50 is about 13-fold lower than that of the compound before.
As for `CCNC(=O)C(C)c1ccc(C#Cc2cnn(Cc3ccccc3)c2)cc1` (stereo not shown) [Example 7.12], the figure is 1000 nM; as for `CCNC(=O)C(C)c1ccc(C#Cc2ccc(CNc3ccccn3)cc2)cc1` (stereo not shown) [Example 7.16], 1500 nM.
Turning to `CCNC(=O)C(C)c1ccc(C#Cc2cncc(OC)c2)cc1` (stereo not shown) [Example 7.14], inhibition was half-maximal at 5000 nM (IC50).
As for `CCNC(=O)C(C)c1ccc(C#Cc2ccc(OCCC(F)(F)F)cc2)cc1` (stereo not shown) [Example 5.14], the figure is 110 nM; as for `CCNC(=O)C(C)c1ccc(C#Cc2ccc(OC(C)C)cc2)cc1` (stereo not shown) [Example 7.24], 260 nM.
Take `CCOc1ccc(C#Cc2ccc(C(C)C(=O)NCc3ccn(C)n3)cc2)cc1` (stereo not shown) [Example 6.22]: the half-inhibitory concentration (IC50) came out at 1500 nM.
Under `CCNC(=O)C(C)c1ccc(C#Cc2ccc(SC)cc2)cc1` (stereo not shown) [Example 7.7] stands 250 nM; under `CCNC(=O)C(C)c1ccc(C#Cc2ccc(OC3CCC3)cc2)cc1` (stereo not shown) [Example 7.3], 110 nM.
The compound `CCNC(=O)C(C)c1ccc(C#Cc2ccc(OC(C)C)nc2)cc1` (stereo not shown) [Example 7.29] had an IC50 of 250 nM.
The compound `CCNC(=O)C(C)c1ccc(C#Cc2ccnc(Oc3cncnc3)c2)cc1` (stereo not shown) [Example 7.38] showed a half-inhibitory concentration (IC50) of 2900 nM. Against the preceding compound, the IC50 is about 12-fold higher.
Under `CCNC(=O)C(C)c1ccc(C#Cc2cnc(NCc3ccncc3)nc2)cc1` (stereo not shown) [Example 2.16] stands 7400 nM; under `CCNC(=O)C(C)c1ccc(C#Cc2ccc(OCCn3ccnc3)cc2)cc1` (stereo not shown) [Example 5.18], 1900 nM.
As for `CCNC(=O)C(C)c1ccc(C#Cc2cnc(NC3CCC3)nc2)cc1` (stereo not shown) [Example 2.12], the figure is 690 nM.
`CCOc1ccc(C#Cc2ccc(C(C)C(=O)NCc3ccno3)cc2)cc1` (stereo not shown) [Example 6.18]: the IC50 came out at 18700 nM. This IC50 is about 27-fold higher than that of the compound before.
`CCNC(=O)C(C)c1ccc(C#Cc2ccc3[nH]nnc3c2)cc1` (stereo not shown) [Example 7.19] registered an IC50 of 7700 nM.
Take `CCOc1ccc(C#Cc2ccc(C(C)C(=O)Nc3ccncn3)cc2)cc1` (stereo not shown) [Example 6.2]: inhibition was half-maximal at 520 nM (IC50).
The compound `CCOc1ccc(C#Cc2ccc(C(C)C(=O)Nc3ccnnc3)cc2)cc1` (stereo not shown) [Example 6.12] showed an IC50 of 130 nM. This IC50 lies about 4-fold lower than the previous one.
`CCCCOc1cc(C#Cc2ccc(C(C)C(=O)NCC)cc2)ccn1` (stereo not shown) [Example 7.43] came in with an IC50 of 170 nM. This IC50 and that of the compound before are within 1.5-fold of each other.
Under `CCOc1ccc(C#Cc2ccc(C(C)C(=O)NCc3cnco3)cc2)cc1` (stereo not shown) [Example 6.24] stands 1800 nM; under `CCNC(=O)C(C)c1ccc(C#Cc2ccc(OCC)nc2)cc1` (stereo not shown) [Example 7.23], 560 nM.
In turn, `CCNC(=O)C(C)c1ccc(C#Cc2ccc(OCC(C)C)cc2)cc1` (stereo not shown) [Example 5.3] had an IC50 of 240 nM.
As for `CCOc1ccc(C#Cc2ccc(C(C)C(=O)NCC3CCOC3)cc2)cc1` (stereo not shown) [Example 6.25], the figure is 12800 nM; as for `CCOc1ccc(C#Cc2ccc(C(C)C(=O)NCCOC)cc2)cc1` (stereo not shown) [Example 1.12], 9700 nM.
As for `CCNC(=O)C(C)c1ccc(C#Cc2cnc(NCCF)nc2)cc1` (stereo not shown) [Example 2.9], the figure is 2500 nM; as for `CCOc1ccc(C#Cc2ccc(C(C)C(=O)Nc3cc(C)on3)cc2)cc1` (stereo not shown) [Example 6.16], 100 nM.
Under `CCOc1ccc(C#Cc2ccc(C(C)C(=O)NC3CCOC3)cc2)cc1` (stereo not shown) [Example 6.9] stands 1800 nM.
Take `CCNC(=O)C(C)c1ccc(C#Cc2ccc(OCc3cnco3)cc2)cc1` (stereo not shown) [Example 5.21]: the IC50 is 540 nM.
As for `CCNC(=O)C(C)c1ccc(C#Cc2ccc(OCc3cncs3)cc2)cc1` (stereo not shown) [Example 5.10], the figure is 3700 nM.
As for `CCNC(=O)C(C)c1ccc(C#Cc2cc(OCc3ccccc3)ncn2)cc1` (stereo not shown) [Example 7.31], the figure is 640 nM; as for `CCNC(=O)C(C)c1ccc(C#Cc2ccc(OCC3CC3)cc2)cc1` (stereo not shown) [Example 7.4], 150 nM; as for `CCNC(=O)C(C)c1ccc(C#Cc2ccc(OCCCOC)cc2)cc1` (stereo not shown) [Example 5.12], 440 nM.

The values are drawn from patent US8877754B2, “Compounds, pharmaceutical compositions and uses thereof” (Boehringer Ingelheim International GmbH, priority 2010, dated 2014).
